{"source": "patent US20200338156A1", "about": "“C[…] (CYCLO-HIS PRO) FOR PREVENTING, IMPROVING OR TREATING OF BONE LOSS RELATED DISEASE” (NovMetaPharma Co., Ltd., priority 2017, published 2020)", "key": {"[1]": {"test_system": "ovariectomized animal model", "experiment": "Osteoporosis alleviation effect in ovariectomized animal model, micro CT of femur", "type": "in vivo, SD female mice", "protocol": "To determine the effect of alleviating osteoporosis in an ovariectomized animal model according to administration of CHP, a zinc salt, or a mixture thereof, 20-week-old SD female mice (SLC/Central Experimental Animal Co. Ltd., Seoul, Korea) were purchased and raised under certain conditions (temperature: 22±2° C., relative humidity: 55±10%, light/dark cycle: 12 hours). 7 mice/group were allowed to freely drink water and eat food in a cage, subjected to an adaptation period of 1 week before the experiment, and used in the experiment.\nAfter 6 weeks of the administration of CHP, a zinc salt, or a mixture thereof, the effect of alleviating osteoporosis in an ovariectomized animal model was analyzed using Micro CT. The bone mineral density of ovariectomized animals was measured by bone CT scanning of the 3 mm range at the front side of a 2 mm femoral growth plate using micro-CT (QuantumFX, Perkin Elmer, Massachusetts, USA). In addition, a bone volume fraction (BV/TV, %) was measured. The measurement results of the bone mineral density of the femur are illustrated in FIG. 1, and the bone volume fraction is illustrated in FIG. 2."}, "MC3T3-E1 cells": {"test_system": "MC3T3-E1 cells", "experiment": "Osteogenic differentiation of MC3T3-E1 osteoblasts, alkaline phosphatase (ALP) activity", "type": "cell-based", "protocol": "MC3T3-E1 cells were incubated in MEMα, an ascorbic acid-free medium containing 10% FBS and 1% penicillin/streptomycin, in a 5% CO2 incubator at 37° C. To induce osteogenic differentiation, 10 mM β-glycerophosphate and […] of ascorbic acid was further added to the basal medium composition.\n500 μl of 1×10^5 MC3T3-E1 cells were seeded into a 24-well plate and cultured for 24 hours until they reached 100% confluency. […] At this time, in the undifferentiated group, which is a negative control for differentiation, a basal medium was used instead of the differentiation medium. In the positive control treated with hPTH1-34, the medium was replaced with a differentiation medium 6 hours after the treatment. While the medium was replaced every 48 hours, each concentration of CHP and hPTH1-34 was treated for a total of 14 days.\nOn day 14 of differentiation, the medium was removed, followed by washing once with PBS and fixing in 4% paraformaldehyde (PFA) at room temperature for 5 minutes. 500 μl of a 1-STEP™ NBCT/BCIP solution was added to allow a reaction to occur at room temperature for 1 hour. The reaction product was washed with distilled water, and then dried at room temperature, and the degree of coloring of the cells was observed using a microscope. Subsequently, DMSO was added to each well, followed by shaking, and then absorbance at 525 nm was measured."}}, "note": "“Also recorded” adds a separate entry of the source."}
{"compound": "O=C1N[C@@H](Cc2cnc[nH]2)C(=O)N2CCC[C@@H]12", "note": "[CHP, cyclo-hispro]", "values": [{"measurement": "bone mineral density of a femur", "setting": "[1]; CHP alone administered to ovariectomized animal model, dose not stated (FIG. 1)", "result": "significantly increased"}, {"measurement": "bone volume fraction of a femur", "setting": "[1]; CHP alone administered to ovariectomized animal model, dose not stated (FIG. 2)", "result": "significantly increased"}, {"measurement": "bone volume fraction (BV/TV)", "setting": "[1]; group administered 1 mg/L of CHP in drinking water, 6 weeks, micro-CT", "result": "restored to a level similar to that of the positive control (risedronate)"}, {"measurement": "bone mineral density of the femur", "setting": "[1]; group administered 1 mg/L of CHP in drinking water, 6 weeks, micro-CT, compared to the ovariectomized group", "result": "significant increase"}, {"measurement": "effect on bone mineral density and bone volume fraction versus zinc salt-administered group and combined (zinc salt + CHP) administration group", "setting": "[1]; ovariectomized animal model, CHP alone", "result": "significantly stronger"}, {"measurement": "osteogenic differentiation, degree of coloring (ALP staining, FIG. 3)", "setting": "MC3T3-E1 cells; MC3T3-E1, 0.5, 1 or 2 mM CHP, day 14 of differentiation, compared to negative control", "result": "remarkably increased degree of coloring compared to the negative control; also recorded: as the concentration of CHP treated was increased, osteogenic differentiation and bone modeling were promoted"}, {"measurement": "ALP activity (absorbance at 525 nm, FIG. 4)", "setting": "MC3T3-E1 cells; MC3T3-E1, CHP 2 mM, day 14, compared to positive control hPTH1-34 10 nM", "result": "level similar to that of the positive control; also recorded: same or similar to that of a positive control"}]}
